Data on 7 compounds can be found in patent US5061720A, “Substituted-4-thiazolidinone derivatives” (A. H. Robins Company, Inc., priority 1989, dated 1991).

SMILES strings stand for the structures.

One test deals with T1, cyclooxygenase (Ovis aries, UniProt P05979).
T1 construct: Lipid-depleted Sheep Seminal Vesicle Microsome Suspension; from tissue; host or cells: sheep seminal vesicle microsomes (lipid-depleted powder, detergent solubilized)
T1 sequence (P05979 25-600): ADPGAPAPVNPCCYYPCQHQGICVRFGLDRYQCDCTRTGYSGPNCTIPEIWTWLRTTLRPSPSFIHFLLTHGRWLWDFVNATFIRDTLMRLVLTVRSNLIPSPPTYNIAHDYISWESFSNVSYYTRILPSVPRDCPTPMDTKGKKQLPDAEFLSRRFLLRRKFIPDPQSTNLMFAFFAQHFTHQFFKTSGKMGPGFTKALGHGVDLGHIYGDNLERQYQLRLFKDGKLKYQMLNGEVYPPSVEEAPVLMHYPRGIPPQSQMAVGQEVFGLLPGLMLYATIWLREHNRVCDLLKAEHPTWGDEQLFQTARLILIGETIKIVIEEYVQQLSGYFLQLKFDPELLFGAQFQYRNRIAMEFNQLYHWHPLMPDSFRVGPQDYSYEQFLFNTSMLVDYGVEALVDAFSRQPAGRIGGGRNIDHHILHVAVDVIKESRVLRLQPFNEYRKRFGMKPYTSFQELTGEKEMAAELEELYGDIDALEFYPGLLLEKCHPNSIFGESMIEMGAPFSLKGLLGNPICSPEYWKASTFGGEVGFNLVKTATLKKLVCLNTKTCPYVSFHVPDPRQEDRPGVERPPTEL
In words: Cyclooxygenase Assay (polarigraphic oxygen consumption, lipid-depleted sheep seminal vesicle microsomes). It is filed as biochemical. As to conditions: 30° C., 2 min incubation, ammonium arachidonate substrate. On the procedure: Cyclooxygenase activity was determined polarigraphically with detergent solubilized, lipid-depleted sheep seminal vesical microsomes. Addition of test articles that inhibit cyclooxygenase, including reference standards, cause a decrease in the rate of oxygen consumption in the reactions. Cyclooxygenase activity is determined using the following procedures:
I. Preparation of Test Materials
1. Lipid-Depleted Sheep Seminal Vesicle Microsomal Powder. This preparation follows the procedure of G. Graff et al. J. Biol. Chem. 253, 7662 (1978).
2. Ammonium Arachidonate Solution. A 250 μL aliquot of 20.0 mM arachidonic acid in absolute ethanol and a 50-μL aliquot of concentrated ammonium hydroxide is placed into a test tube. The solvent and excess ammonium hydroxide is evaporated under a stream of nitrogen at room temperature. The ammonium arachidonate residue is dissolved in 500 μL of 100 mM 2-amino-2-hydroxymethyl-1,3-propanediol hydrochloride (Tris HCl) buffer (pH 8.0) by using a vortex mixer. The final concentration of ammonium arachidonate (working solution) is 10.0 mM.
3. Enzyme Buffer 100 mM Tris HCl (pH 8.0) containing 2.0 mM phenol, 5.0 mM ethylenediaminetetraacetic acid (EDTA), 5.0 mM diethyldithiocarbamic acid and 1.0% Tween 20.
4. Reaction Buffer 100 mM Tris HCl (pH 8.0) containing 2.0 μM hematin and 1.0 mM phenol (prepared daily).
5. Detergent Solubilized Lipid-depleted Sheep Seminal Vesicle Microsome Suspension. Ten mg (solid) of lipid-depleted microsomal powder from sheep seminal vesicles is suspended in 1.0 mL of enzyme buffer and kept at 4° C. until used.
6. Solutions of Test (Formula I compound) or Reference Articles. Test and reference articles are dissolved in the reaction buffer prepared in 4) or a solvent that will not interfere with cyclooxygenase activity, e.g., dimethylsulfoxide, ethanol or acetone.
II. Cyclooxygenase Inhibition Assay
Three mL of the reaction buffer and 20 μL of the microsomal enzyme suspension are placed in a Yellow Springs Instrument (YSI) oxygen chamber where the temperature is maintained at 30° C. by means of a temperature controlled circulating water bath. Aliquots of the solutions containing ≤[…] of Formula I compound (test article) or reference article [see 6) above] are added to the YSI chamber and incubated for 2 minutes. The reaction is initiated by addition of 30 μL of the 10 mM ammonium arachidonate solution and cyclooxygenase activity determined polarigraphically using an oxygen electrode by measuring the rate of oxygen consumption [Cook et al., Anal. Biochem 96 341-51 (1979) and Cook and Lands, Can. J. Biochem. 53, 1220-1231 (1975)].
Test, reference, and control articles were evaluated in triplicate. Cyclooxygenase activity was determined from the slope (mv/unit time) of the recorder tracing with 1 mV being proportional to a 2.34 μM change in oxygen concentration.
The IC50 (concentration of test or reference article that inhibits the reaction by 50%) was calculated from cumulative plots relating the extent of inhibition of cyclooxygenase activity in control group assays to increasing concentrations of test article. Where no inhibition exists, the IC50 is expressed as greater than the highest concentration of the drug tested.

A further test relates to guinea pig skin. In words: UV-Erythema in Guinea Pigs. It is filed as in vivo. On the set-up: key: +: active; -: inactive. As to conditions: topical, 50 μL of cream with 1.0 mg test article per 1 g, immediately after UV exposure; active = composite score significantly lower than control, Dunnett's t-test p≤0.05. On the procedure:
I. Preparation of Formulation (cream)
All drugs tested were prepared by thoroughly incorporating 1.0 mg of the test article into 1 g of a pH 7.0 cream vehicle of the following composition.
methyl glucose sesquistearate 1.6%
methyl gluceth-20 sesquistearate 2.4%
emulsifying wax, N.F. 5.0%
mineral oil (heavy), U.S.P. 1.0%
white petrolatum, U.S.P. 5.0%
stearic acid, U.S.P. 2.5%
sodium benzoate, N.F. 0.1%
magnesium aluminum silicate 1.5%
deionized water, pH 7.0 64.8%
The preparations were packed into 1-cc plastic syringes.
II. Pharmacological Assay
The backs of female, English short hair guinea pigs (250-500 g) were shaved and depilated with Nair®. Control and treated groups each consisted of 5 animals, and selection of the animals and the control and treatment groups was achieved by random procedures. A rubber sheet with three one-half inch holes spaced one-half inch apart was draped over backs of the guinea pigs. The guinea pigs were then exposed to ultraviolet (UV) light (Hanovia Model 10, ~650-800 μW/cm^2) for 15 seconds by holding the animals against the light source. Fifty μL of the test drug or reference drug (indomethacin or bromfenac) preparation were immediately rubbed onto the skin, either on the area exposed to UV light or to an area adjacent to the UV light exposed skin. The degree of erythema for each exposed area was scored at various times following exposure according to the following scale:
1=slight redness with faint outline
2=moderate to marked redness with distinct outline
The score was totaled for each guinea pig (maximum score is 6). The Dunnett's t-test was used to determine significant (p≤0.05) differences from the control (placebo treated) group.

For `CCCC[C@@H]1S[C@H](c2cccc(Oc3ccccc3)c2)N(CCCCCC(=O)OCC)C1=O` (relative stereo) [Example 51], at cyclooxygenase, the IC50 was found to be 0.26 µM. Also, the “U.V. erythema (+ = active, - = inactive)” value in the test on guinea pig skin was “-”.

Regarding `CCCC[C@@H]1S[C@@H](c2cccc(Oc3ccccc3)c2)NC1=O` (relative stereo) [Example 83, 5-Butyl-2-(3-phenoxyphenyl)-4-thiazolidinone], the midpoint of inhibition on cyclooxygenase, the IC50, lay at 12 µM. Further, the “U.V. erythema (+ = active, - = inactive)” value in the test with guinea pig skin is on record as “-”.

At cyclooxygenase, `CCCCC1SC(c2cccc(Oc3ccccc3)c2)N(CCCCc2ccccc2)C1=O` (centres unmarked) [Example 1, 5-Butyl-2-(3-phenoxyphenyl)-3-(4-phenylbutyl)-4-thiazolidinone] gave an IC50 of 0.09 µM. Further, in the test with guinea pig skin, the “U.V. erythema (+ = active, - = inactive)” value is reported as “+”.

Consider `CC1SC(c2cccc(Oc3ccccc3)c2)N(CCCCc2ccccc2)C1=O` (centres unmarked) [Example 7, 5-Methyl-2-(3-phenoxyphenyl)-3-(4-phenylbutyl)-4-thiazolidinone], for which the IC50 against cyclooxygenase stood at 1.4 µM. For the same compound, the “U.V. erythema (+ = active, - = inactive)” value in the test on guinea pig skin is “+”.

On to `CCCCC1SC(c2cccc(C(=O)c3ccccc3)c2)N(CCCCc2ccccc2)C1=O` (centres unmarked) [Example 8, 2-(3-Benzoylphenyl)-5-butyl-3-(4-phenylbutyl)-4-thiazolidinone], for which the IC50 against cyclooxygenase was found to be 0.01 µM. In addition, in the test on guinea pig skin, the “U.V. erythema (+ = active, - = inactive)” value is on record as “+”.

The compound `CCCCC1SC(c2cccc(Oc3ccccc3)c2)N(CCc2ccccc2)C1=O` (centres unmarked) [Example 17, 5-Butyl-2-(3-phenoxyphenyl)-3-(2-phenylethyl)-4-thiazolidinone] yielded a half-inhibitory concentration (IC50) on cyclooxygenase of 3.4 µM. In addition, the “U.V. erythema (+ = active, - = inactive)” value in the test on guinea pig skin is given as “-”.

Regarding `CCCCC1SC(c2cccc(Oc3ccccc3)c2)N(CCCCC(=O)O)C1=O` (centres unmarked) [Example 45, 5-Butyl-4-oxo-2-(3-phenoxyphenyl)-3-thiazolidinepentanoic acid], the midpoint of inhibition against cyclooxygenase, the IC50, lay at 9.3 µM. For the same compound, in the test with guinea pig skin, the “U.V. erythema (+ = active, - = inactive)” value is given as “+”.
